Laboratory results: the supplement of paper PMC10307832

What was measured:
Experiment in all cases: relative viability (nuclei count vs DMSO), 5 days (fraction); higher = more cells survive
[1] = compound: Cc1ccc(-n2nc(C(C)(C)C)cc2NC(=O)Nc2ccc(OCCN3CCOCC3)c3ccccc23)cc1 [Doramapimod] + Cc1cc(Nc2cc(N3CCN(C)CC3)nc(Sc3ccc(NC(=O)C4CC4)cc3)n2)n[nH]1 [Tozasertib] (partner 0.1 µM)
Method in brief: (§1)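 Values are medians from duplicate plates. Each reflects relative viability, defined as the nuclei count of treated wells over that of vehicle wells. Lung cancer cell lines in 1536-well plates were pin-tool dosed one day after seeding with one drug alone or with a fixed anchor-drug dose plus five library-drug doses (not always all listed) in √10 steps, then fixed, stained and imaged at 4× after 5 days.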

[2] = compound: Cc1ccc(-n2nc(C(C)(C)C)cc2NC(=O)Nc2ccc(OCCN3CCOCC3)c3ccccc23)cc1 [Doramapimod] + CC(C)C[C@H](NC(=O)[C@H](Cc1ccccc1)NC(=O)c1cnccn1)B(O)O [Bortezomib] (partner 0.002 µM)
Method in brief: as §1

[3] = compound: Cn1c(Nc2ccc(C(F)(F)F)cc2)nc2cc(Oc3ccnc(-c4ncc(C(F)(F)F)[nH]4)c3)ccc21 [RAF265] + CC1(C)CCC(c2ccc(Cl)cc2)=C(CN2CCN(c3ccc(C(=O)NS(=O)(=O)c4ccc(N[C@H](CCN5CCOCC5)CSc5ccccc5)c(S(=O)(=O)C(F)(F)F)c4)cc3)CC2)C1 [Navitoclax] (partner 0.5 µM)
Method in brief: as §1

[4] = compound: Cn1c(Nc2ccc(C(F)(F)F)cc2)nc2cc(Oc3ccnc(-c4ncc(C(F)(F)F)[nH]4)c3)ccc21 [RAF265] + Nc1nc2[nH]cc(CCc3ccc(C(=O)N[C@@H](CCC(=O)O)C(=O)O)cc3)c2c(=O)[nH]1 [Pemetrexed] (partner 0.2 µM)
Method in brief: as §1

| Cell Line | relative viability ([1]; first compound 0.02 µM) | relative viability ([1]; first compound 0.06325 µM) | relative viability ([1]; first compound 0.2 µM) | relative viability ([1]; first compound 0.6325 µM) | relative viability ([1]; first compound 2 µM) | relative viability ([2]; first compound 0.02 µM) | relative viability ([2]; first compound 0.06325 µM) | relative viability ([2]; first compound 0.2 µM) | relative viability ([2]; first compound 0.6325 µM) | relative viability ([2]; first compound 2 µM) | relative viability ([3]; first compound 0.01 µM) | relative viability ([3]; first compound 0.03162 µM) | relative viability ([3]; first compound 0.1 µM) | relative viability ([3]; first compound 0.3162 µM) | relative viability ([3]; first compound 1 µM) | relative viability ([4]; first compound 0.01 µM) | relative viability ([4]; first compound 0.03162 µM) | relative viability ([4]; first compound 0.1 µM) | relative viability ([4]; first compound 0.3162 µM) | relative viability ([4]; first compound 1 µM) |
| --- | --- | --- | --- | --- | --- | --- | --- | --- | --- | --- | --- | --- | --- | --- | --- | --- | --- | --- | --- | --- |
| NCI-H647 | 0.317 | 0.288 | 0.328 | 0.24 | 0.327 | 1.13 | 0.985 | 0.912 | 1.05 | 0.861 | 1.2 | 0.954 | 0.977 | 0.895 | 0.458 | 0.156 | 0.161 | 0.174 | 0.142 | 0.178 |
| EKVX | 0.324 | 0.385 | 0.43 | 0.336 | 0.341 | 1.04 | 0.997 | 1.08 | 0.967 | 1.11 | 0.939 | 0.916 | 0.957 | 0.606 | 0.637 | 0.373 | 0.44 | 0.456 | 0.255 | 0.358 |
| NCI-H460 | 0.455 | 0.517 | 0.49 | 0.673 | 0.372 | 0.961 | 1.12 | 1.11 | 1.24 | 1.05 | 1.17 | 1.08 | 1.21 |  | 0.852 | 0.0601 | 0.0679 | 0.0652 | 0.0628 | 0.0612 |
| LCLC-97TM1 | 0.22 | 0.228 | 0.21 | 0.266 | 0.142 | 0.587 | 1.27 | 0.905 | 0.378 | 0.521 | 0.512 | 0.356 | 0.461 | 0.191 | 0.135 | 0.145 | 0.155 | 0.149 | 0.153 | 0.128 |
| COR-L23 | 0.268 | 0.22 | 0.173 | 0.178 | 0.176 | 1.12 | 0.914 | 0.962 | 0.997 | 0.969 | 0.976 | 0.957 | 0.918 | 0.512 | 0.514 | 0.188 | 0.206 | 0.202 | 0.182 | 0.184 |
| NCI-H1355 | 0.543 | 0.538 | 0.55 | 0.556 | 0.495 | 1.23 | 1.29 | 1.29 | 1.19 | 1.16 | 1.01 | 0.831 | 0.919 | 0.532 | 0.264 | 1.05 | 1.02 | 0.972 | 0.96 | 0.714 |
| NCI-H1666 | 0.642 | 0.687 | 0.641 | 0.624 | 0.597 | 0.83 | 0.784 | 0.826 | 0.842 | 0.725 | 1.01 | 1 | 0.882 | 0.931 | 0.454 | 0.787 | 0.782 | 0.904 | 0.888 | 0.754 |
| EPLC-272H | 0.319 | 0.275 | 0.441 | 0.29 | 0.246 | 0.873 | 0.779 | 0.848 | 0.881 | 0.655 | 1.03 | 0.98 | 0.851 | 0.503 | 0.383 | 0.327 | 0.319 | 0.406 | 0.213 | 0.177 |
| ChaGo-K-1 | 0.225 | 0.227 | 0.229 | 0.215 | 0.217 | 1.04 | 1.29 | 1.29 |  | 0.646 | 1.1 | 1 | 1.03 | 1.04 | 0.823 | 0.262 | 0.273 | 0.248 | 0.262 | 0.325 |
| NCI-H1651 | 0.726 | 0.703 | 0.75 | 0.719 | 0.608 | 0.922 | 0.996 | 0.931 | 0.987 | 0.907 | 0.992 | 0.884 | 1.06 | 0.874 | 0.871 | 0.587 | 0.567 | 0.431 | 0.494 | 0.532 |
| HCC-44 | 0.961 | 1.01 | 1.19 | 0.913 | 0.84 | 0.941 | 1.01 | 0.814 | 0.86 | 0.833 | 0.879 | 0.884 | 1.03 | 1.03 | 0.916 | 0.647 | 0.597 | 0.655 | 0.622 | 0.653 |
| SW 1573 | 0.267 | 0.208 | 0.198 | 0.22 | 0.157 | 0.944 | 0.927 | 0.813 | 0.764 | 0.875 | 1.23 | 0.984 | 1.04 | 0.89 | 0.389 | 0.872 | 0.833 | 0.753 | 0.6 | 0.634 |
| PC-3 [JPC-3] | 0.914 | 0.961 | 0.938 | 1.03 | 0.92 | 0.909 | 0.926 | 0.832 | 0.939 | 0.943 | 0.735 | 0.754 | 0.893 | 0.304 | 0.556 | 1.17 | 1.11 | 1.24 | 0.42 | 0.621 |
| LOU-NH91 | 0.715 | 0.66 | 0.798 | 0.76 | 0.488 | 0.47 | 0.506 | 0.532 | 0.444 | 0.672 | 0.731 | 0.594 | 0.757 | 0.389 | 0.387 | 0.365 | 0.336 | 0.427 | 0.419 | 0.441 |
| PC-14 | 0.582 | 0.602 | 0.588 | 0.647 | 0.525 | 0.968 | 0.845 | 0.778 | 1.01 | 0.81 | 0.955 | 1.03 | 1.03 | 0.985 | 0.854 | 0.115 | 0.138 | 0.144 |  | 0.158 |
| NCI-H2087 | 0.32 | 0.308 | 0.253 | 0.223 | 0.233 | 0.931 | 0.866 | 0.79 | 0.771 | 0.768 | 0.995 | 0.823 | 0.692 | 0.683 | 0.568 | 0.599 | 0.669 | 0.549 | 0.649 | 0.543 |
